# Reference: patent US10781325B2, “Curable composition, curable ink, accommodating container, image forming device, image forming method, cured matter, and acrylamide compound” (Ricoh Company, Ltd., priority 2016, dated 2020)
# Assays:
# [1] = Measuring of viscosity of curable compound (cone plate type rotatory viscometer); format: physicochemical; conditions: cone rotor, 50 rpm
# Experimental: Viscosity of the thus-obtained curable compound was measured by a cone plate type rotatory viscometer (VISCOMETER TVE-22L, manufactured by TOKI SANGYO CO., LTD.) using a cone rotor (1°34′×R24) at a number of rotation of 50 rpm and at 25 degrees C. of hemathermal circulating water.
# [2] = test system: female rats of Slc: Wistar/ST series; assay: Limiting test based on Acute Oral Toxicity Test (OECD TG423, Acute Toxic Class Method); format: in vivo, rat; conditions: single gavage dose 2,000 mg/kg weight of body, six animals per testing article, observed 14 days
# Text: The curable compounds of Example 1a, Example 4a, Comparative Example 1a, and Comparative Example 2a were subject to the limiting test based on Acute Oral Toxicity Test (OECD TG423) according to Acute Toxic Class Method in the following manner to evaluate safeness.
# Regarding the curable compound of the present disclosure as test article, 24 female rats of Slc: Wistar/ST series of 5 week old as animal used were ordered for Japan SLC, Inc. The animals were habituated for one week. No abnormalities were found in all of the rats (animals used) during the habituation period.
# Based on the body weights measured two days before the initiation of administration, they were categorized into four groups (six rats per group) by the body weight stratified random sampling method so that the body weight of each individual was within ±20% of the average body weight of all of the individuals. The individuals not classified into the groups were excluded from the test.
# First group, Example 1a: Testing article: curable compound represented by the chemical structure a1-1, Amount of administration: 2,000 mg/kg weight of body, number of animals used: six
# Second group, Example 4a: Testing article: curable compound represented by the chemical structure d1-1, Amount of administration: 2,000 mg/kg weight of body, number of animals used: six
# Third group, Comparative Example 1a: Testing article: N,N-diethylacrylamide represented by the chemical structure (1), Amount of administration: 2,000 mg/kg weight of body, number of animals used: six
# Fourth group, Comparative Example 2a: Testing article: Acrylamide represented by the chemical structure (2), Amount of administration: 2,000 mg/kg weight of body, number of animals used: six
# 100 mg of the testing article was weighed using a measuring flask and water was added as solvent to make 1 mL in total. […] The preparation liquid of the testing article was prepared on the day of administration.
# The animals used were on fasting except for water for 17 hours before administration. The mass was measured after the fasting and the testing article was provided by gavage administration one time using a gastric tube. After the administration, no food was given for another three to four hours.
# The administration was on one dose of 2,000 mg/kg weight of body and six animals were used per testing article.
# Note that the observation was counted from the day of the initiation of administration being regarded as Day 1.
# The number of animals who died during the test period was counted.
Compound,"Viscosity (25 degrees C., mPA · s) [1]",Safeness (number of dead) [2]
"C=CC(=O)N(CC)CC [Comparative Example 1a, N,N-diethylacrylamide, reference compound]",2.6 mPA · s,6
"C=CC(=O)N(C)CCOC [Comparative Example 2a, reference compound]",2.4 mPA · s,6
"C=CC(=O)N(CC(=O)OCC)CC(=O)OCC [Comparative Example 3a, reference compound]",69.2 mPA · s,–
C=CC(=O)N(C)CCOC(C)=O [Example 1a],8.4 mPA · s,3
C=CC(=O)N(C)CCOC(=O)C(C)C [Example 2a],9.5 mPA · s,–
C=CC(=O)N(CCOC(C)=O)C(C)(C)C [Example 3a],16.4 mPA · s,–
C=CC(=O)N(C)CC(=O)OC [Example 4a],12.3 mPA · s,0
C=CC(=O)N(C)CC(=O)OC(C)C [Example 7a],14.1 mPA · s,–
C=CC(=O)N(CC(=O)OC)C(C)C [Example 9a],25.4 mPA · s,–
C=CC(=O)N(CCCCCC)CC(=O)OC [Example 11a],29.9 mPA · s,–
C=CC(=O)N(C)C(C)C(=O)OCC (stereo not shown) [Example 14a],6.9 mPA · s,–
C=CC(=O)N(C)C(C)C(=O)OC(C)C (stereo not shown) [Example 15a],6.8 mPA · s,–

# The next lines start with results.
"Viscosity (25 degrees C., mPA · s) [1]",Compound,Safeness (number of dead) [2]
11.4 mPA · s,C=CC(=O)N(C)CC(=O)OCC [Example 5a],–
11.9 mPA · s,C=CC(=O)N(C)CC(=O)OCCCC [Example 6a],–
20.4 mPA · s,C=CC(=O)N(CCC)CC(=O)OCC [Example 8a],–
22.1 mPA · s,C=CC(=O)N(CC(=O)OC(C)C)C(C)C [Example 10a],–
23.7 mPA · s,C=CC(=O)N(CCCCCC)CC(=O)OCCCC [Example 12a],–
8.9 mPA · s,C=CC(=O)N(C)C(C)C(=O)OC (stereo not shown) [Example 13a],–
